Columns and labels:
U-87 MG = test: MTT assay, U-87 MG; type: cell-based; conditions: Homo sapiens, 24 h of incubation, read-out: IC50 values ± SEM, MTT assay
Method: Human glioblastoma cell lines (A172 CRL-1620™, U-87 MG HTB-14™, U-118 MG HTB-15™, T98G CRL-1690™) and the mouse astrocyte cell line (C8-D1A CRL-2541™) were obtained from the American Type Culture Collection (ATCC, Manassas, VA, USA). The cell lines were cultured in complete medium: DMEM (Corning, Kennebunk, ME, USA) for C8-D1A and T98G, and EMEM (ATCC, Manassas, VA, USA) for A172, U-87 MG, U118MG. The media were supplemented with 10% foetal bovine serum (Eurx, Gdansk, Poland) and 1% penicillin-streptomycin solution (Corning, Kennebunk, ME, USA). Cells were cultured in cell culture flasks (Sarstedt, Numbrecht, Germany) at 37 °C in 5% CO2. For experiments, cells were washed with phosphate-buffered saline without calcium and magnesium (Corning, Kennebunk, ME, USA) and treated with 0.05% trypsin and 0.02% EDTA (Corning, Kennebunk, ME, USA). Cells were counted using a Sceptre 3.0 cell counter (Merck Millipore, Burlington, MA, USA) prior to seeding into plates. For 6-well plates, 5 x 10^5 cells/mL were seeded, while for 96-well plates (Sarstedt, Numbrecht, Germany), 1 x 10^5 cells/mL were seeded in 100 μL of the medium.
The cell lines were seeded in 96-well plates and cultured according to the methodology described in the previous section. Cells were then treated with the novel derivatives MM118 and MM119 and the reference compound temozolomide (TMZ) (Sigma-Aldrich, St. Louis, MO, USA) at concentrations of 0.1, 0.25, 0.5, 1.0, 2.5, 5.0, and 10.0 μM for 24 h. The MTT assay was performed using a solution of 3–(4,5-dimethyl-2-thiazolyl)-2,5-diphenyl-2H-tetrazolium bromide (Sigma-Aldrich, St. Louis, MO, USA) at a concentration of 5 mg/mL in phosphate-buffered saline without calcium and magnesium (Corning, Kennebunk, ME, USA). After 24 h incubation with test compounds, 10 μL MTT solution was added to each well, and cells were incubated for another 2 h at 37 °C. The cells were then lysed in 100 μL lysis buffer (25 mM HCl, 2% acetic acid, 3% DMF, and 5% SDS, adjusted to pH 4.7). Absorbance was measured at 570 nm using an Absorbance 96 microplate reader (Byonoy GmbH, Hamburg, Germany).

A172 [1] = test: LDH release assay, A172; type: cell-based, human; conditions: A172, 1.5 μM, 24 h
Method: Analogous to the procedure described in the previous section, A172 and U-87 MG cells were cultured and plated in 96-well plates. The LDH-Cytotoxicity Assay Kit II (ab65393) (Abcam, Cambridge, UK) was used to assess cytotoxicity according to the manufacturer’s protocol. The test compounds MM118 and MM119 and the reference compound temozolomide (TMZ) were added to the cells at a concentration of 1.5 μM. After 24 h of exposure, the medium was collected, centrifuged and 10 μL of each sample was transferred to a new 96-well plate. In the next step, 100 μL of LDH Reaction Mix was added to each well and incubated for 30 min at room temperature. Absorbance was measured at 450 nm using an Absorbance 96 microplate reader (Byonoy GmbH, Hamburg, Germany). Cytotoxicity was calculated according to the formula provided by the manufacturer: Cytotoxicity (%) = ((Test Sample – Low Control)/(High Control – Low Control)) X 100, where Low Control - control without added compound, High Control with added 10 µL Lysis Buffer II.

[2] = Annexin V-FITC/PI apoptosis analysis, A172; type: cell-based, human; conditions: human, A172 cells, read-out: Viable cells; for viability at 24 h, 1 µM: A172, 1.0 μM; for viability at 24 h, 1.5 µM: A172, 1.5 μM
Method: (§1) The level of apoptosis induction of the newly synthesised compounds MM118 and MM119 was determined using double staining with Annexin V-FITC and propidium iodide (AV/PI). This method enables the differentiation of four cell populations based on their state: viable cells, necrotic cells, cells in early apoptosis, and late apoptosis. The compounds were analysed on A172 and U-87 MG human glioblastoma multiforme cell lines using concentrations of 1 μM and 1.5 μM over a 24-h exposure period.
(§2) The impact of apoptosis induction by the tested compounds at concentrations of 1 μM and 1.5 μM, as well as by temozolomide at 1.5 μM, was evaluated through annexin V-FITC and propidium iodide (PI) staining with the Apoptosis Detection Kit II (BD Biosciences, San Diego, CA, USA). The glioblastoma cell lines A172 and U-87 MG were then deprived of medium and washed several times with cold phosphate-buffered saline (PBS) solution. The cell suspension was then prepared in the binding buffer provided in the kit at a concentration of 1 × 10^6 cells/mL. From each sample, 100 μL of the cell suspension was transferred to tubes and subsequently treated with 5 μL of Annexin V-FITC and 5 μL of propidium iodide (PI). The tubes were then incubated for 15 min at room temperature in the dark. Following the incubation period, 400 μL of binding buffer was added to each sample, after which the samples were immediately analysed using a BD FACSCanto II flow cytometer (Becton Dickinson Biosciences, San Jose, CA, USA), with 10,000 events recorded per sample. The results were then analysed using FACSDiva Software Version 6.1.3 (BD Biosciences Systems, San Jose, CA, USA).

A172 [3] = test: Annexin V-FITC/PI apoptosis analysis, A172; type: cell-based, human; conditions: A172, 1.5 μM, 24 h
Method: as §1, §2

caspase 8 = test: Caspase 8 activation (FAM FLICA), U-87 MG; type: cell-based, human; conditions: 1.5 μM, 24 h
Method: The activity of caspase 1, caspase 3/7, caspase 8, and caspase 9 was evaluated through the utilisation of FAM FLICA Caspase Assays (ImmunoChemistry Technologies, Bloomington, MN, USA), in accordance with the established protocols. Following treatment with the compounds, the cells were collected at a concentration of 1 × 10^6 cells/mL, washed twice with cold PBS, and resuspended in 290 μL of PBS. The subsequent step involved the addition of 10 μL of 30X FLICA solution, followed by incubation at 37 °C in the absence of light for one hour. Then, 2 ml of Apoptosis Wash Buffer was added, and the samples were washed twice. A 300 μL aliquot of each sample was transferred to a BD FACSCanto II flow cytometer (Becton Dickinson Biosciences, San Jose, CA, USA), where 10,000 events per sample were recorded. The resulting data was then analysed using FACSDiva software, version 6.1.3 (BD Biosciences Systems, San Jose, CA, USA).

IC50 (U-87 MG) [µM]	SMILES	LDH release, cytotoxicity (A172 [1]) [%]	viability at 24 h, 1 µM [2] [%]	viability at 24 h, 1.5 µM [2] [%]	Early apoptotic cells (A172 [3]) [%]	Late apoptotic cells (A172 [3]) [%]	Necrotic cells (A172 [3]) [%]	Active caspase 8 (cell population) (caspase 8)
0.992 ± 0.37	CCC(CO)NS(=O)(=O)c1ccc(-n2nc(C)c3nc4nnnn4nc32)cc1 (stereo in doubt) [MM118, N-(R)-(1-hydroxy-but-2-yl)-4-[7-methyl-5H-pyrazolo[4,3-e]tetrazolo[1,5-b][1]^,[2]^,[4]triazin-5-yl)]benzenesulfonamide]	16.59 ± 1.71	88.2	65.5 ± 5.06	3.03 ± 0.44	22.10 ± 6.56	9.50 ± 2.10	73.65 ± 3.76%
1.19 ± 0.422	CCC(CO)NS(=O)(=O)c1ccc(-n2nc(C)c3nc4nnnn4nc32)cc1 (stereo in doubt) [MM119, N-(S)-(1-hydroxy-but-2-yl)-4-[7-methyl-5H-pyrazolo[4,3-e]tetrazolo[1,5-b][1]^,[2]^,[4]triazin-5-yl)]benzenesulfonamide]	13.44 ± 2.87	90.7	74.8 ± 1.84	1.00 ± 0.28	18.80 ± 1.35	2.13 ± 0.62	69.15 ± 6.30%
> 10	Cn1nnc2c(C(N)=O)ncn2c1=O [TMZ, temozolomide, reference compound]	−0.61 ± 2.02		89.75 ± 0.71	1.55 ± 0.06	6.83 ± 0.39	1.90 ± 0.38	No significant statistical differences
